Marks after values point to notes of the source that are not given here.

The target of series [1] is T1, human A3AR (Homo sapiens (Human), UniProt P0DMS8). In words: Cyclic AMP accumulation / adenylate cyclase assay, CHO cells expressing hA3AR. In kind it is cell-based.
Experimental: Cyclic AMP accumulation assay: Intracellular cyclic AMP levels were measured with a competitive protein binding method.
CHO cells that expressed the recombinant human or rat A3AR or the human A1 or A2BAR were harvested by trypsinization. After centrifugation and resuspended in medium, cells were planted in 24-well plates in 1.0 mL medium. […] The reaction was terminated by removing the supernatant, and cells were lysed upon the addition of 200 μL of 0.1 M ice-cold HCl. The cell lysate was resuspended and stored at −20° C. For determination of cyclic AMP production, protein kinase A (PKA) was incubated with [^3H]cyclic AMP (2 nM) in K2HPO4/EDTA buffer (K2HPO4, 150 mM; EDTA, 10 mM), 20 μL of the cell lysate, and 30 μL 0.1 M HCl or 50 μL of cyclic AMP solution (0-16 pmol/200 μL for standard curve). Bound radioactivity was separated by rapid filtration through Whatman GF/C filters and washed once with cold buffer. Bound radioactivity was measured by liquid scintillation spectrometry.
For another series, the target named is human A3 receptor (Homo sapiens (Human), UniProt P0DMS8). In words: Binding assay at the human A3 receptor (Example 2). The settings on record: CHO cells expressing human A3AR; radioligand [125I]I-AB-MECA; n = 3-5; read-out: Affinity (Ki, nM) A3.
Series [2] deals with T1, human A3AR. In words: [35S]GTPγS binding assay, membranes of CHO cells expressing human A3AR. Type of series: biochemical.
Experimental: [^35S]GTPγS binding assay: [^35S]GTPγS binding was measured by a variation of the method described. […] Each assay tube consisted of 200 μL buffer containing 50 mM Tris HCl (pH 7.4), 1 mM EDTA, 1 mM MgCl2, 1 μM GDP, 1 mM dithiothreitol, 100 mM NaCl, 3 U/ml ADA, 0.2 nM [^35S]GTPγS, 0.004% 3-[(3-cholamidopropyl)dimethylammonio]propanesulfonate (CHAPS), and 0.5% bovine serum albumin. Incubations were started upon addition of the membrane suspension (CHO cells stably expressing either the native human A1AR or A3AR, 5 μg protein/tube) to the test tubes, and they were carried out in duplicate for 30 min at 25° C. The reaction was stopped by rapid filtration through Whatman GF/B filters, pre-soaked in 50 mM Tris HCl, 5 mM MgCl2 (pH 7.4) containing 0.02% CHAPS. The filters were washed twice with 3 mL of the same buffer, and retained radioactivity was measured using liquid scintillation counting. Non-specific binding of [^35S]GTPγS was measured in the presence of 10 μM unlabelled GTPγS.
Another series deals with hA3AR (Homo sapiens (Human), UniProt P0DMS8). The settings on record: values from literature references; read-out: Affinity Ki, nM A3; cited from earlier work.
Series [3] concerns s.c. metrazol seizures in mice. In words: s.c. metrazol (scMET) seizure test. Type of series: in vivo. The settings on record: i.p., 1 mg/kg. An excerpt:
In vivo anticonvulsant activity was established by both electrical and chemoconvulsant seizure tests which have been described previously. White, H. S., et al., Ital. J. Neurol. […] White, H. S. et al., Antiepileptic Drugs ([…].; Meldrum, B. S. ed), 1995, pp 99-110, Raven Press, New York.; and Smith, M., et al., Neurotherapeutics 2007, 4, 12-17. The electrical tests used were the maximal electroshock (MES) seizure test, the 6 Hz minimal clonic seizure test, and the corneal kindled mouse test. The chemical test was the s.c. metrazol seizure tests. Time of peak effect (TPE) is deduced from data generated in initial qualitative test procedures. […] The time point at which the compound produces the most activity/toxicity was chosen as TPE.

A further series concerns MES seizures in mice. As to the kind of experiment: Maximal electroshock (MES) seizure test. Type of series: in vivo. The following applies: i.p., 2 mg/kg. The procedure: The electrical tests used were the maximal electroshock (MES) seizure test, the 6 Hz minimal clonic seizure test, and the corneal kindled mouse test. The chemical test was the s.c. metrazol seizure tests. Time of peak effect (TPE) is deduced from data generated in initial qualitative test procedures. Five groups of 4 animals each are administered the test compound, and each group is tested at one of five different time intervals: ¼, ½, 1, 2 and 4 h. The time point at which the compound produces the most activity/toxicity was chosen as TPE.
(§1) For the MES and 6 Hz tests, a drop of anesthetic/electrolyte solution (0.5% tetracaine hydrochloride in 0.9% saline) was applied to the eyes of each animal prior to placement of the corneal electrodes. The electrical stimulus in the MES test was 50 mA, 60 Hz, for mice. Abolition of the hindleg tonic extensor component of the seizure was used as the endpoint.
(In general: In the maximal electroshock model the usual endpoint is tonic extension of the hind limbs.)

The next series deals with hA1AR (Homo sapiens (Human), UniProt P30542). The following applies: values from literature references; read-out: Affinity Ki, nM A1; cited from earlier work.
In another series the test system is mice. As to the kind of experiment: Minimal behavioral toxicity test, rotorod procedure. The following applies: i.p., measured at 4 h post injection.
In series [4] the test system is seizures induced by 6 Hz corneal stimulation in mice. In words: 6 Hz minimal clonic seizure test. In kind it is in vivo. The following applies: mice, i.p., measured at 1 h post injection. The procedure:
as §1
The ability of the test substance to prevent seizures induced by 6 Hz corneal stimulation (32 mA, 3 sec duration) in mice was evaluated at a convulsive current that evokes a seizure in 97% of the population tested (CC97). Six Hz seizures are characterized by a minimal clonic phase that is followed by stereotyped, automatistic behaviors described originally as being similar to the aura of human patients with partial seizures. Toman, J. E. et al., Tex. Rep.
Animals not displaying this behavior were considered protected.

The next series has as its target hA2AAR (Homo sapiens (Human), UniProt P29274). The settings on record: values from literature references; read-out: Affinity Ki, nM A2A; cited from earlier work.

T1 sequence (P0DMS8 whole entry): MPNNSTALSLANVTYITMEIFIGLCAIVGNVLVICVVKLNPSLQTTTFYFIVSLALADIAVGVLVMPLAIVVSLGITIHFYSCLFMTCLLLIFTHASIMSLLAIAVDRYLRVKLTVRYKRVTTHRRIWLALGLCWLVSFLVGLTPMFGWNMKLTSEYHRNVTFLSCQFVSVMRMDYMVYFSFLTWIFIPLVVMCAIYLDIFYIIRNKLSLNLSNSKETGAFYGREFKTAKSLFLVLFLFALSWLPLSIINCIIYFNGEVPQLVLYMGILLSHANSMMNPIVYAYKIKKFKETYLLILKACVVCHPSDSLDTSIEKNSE
Sequence of hA2AAR (P29274 whole entry): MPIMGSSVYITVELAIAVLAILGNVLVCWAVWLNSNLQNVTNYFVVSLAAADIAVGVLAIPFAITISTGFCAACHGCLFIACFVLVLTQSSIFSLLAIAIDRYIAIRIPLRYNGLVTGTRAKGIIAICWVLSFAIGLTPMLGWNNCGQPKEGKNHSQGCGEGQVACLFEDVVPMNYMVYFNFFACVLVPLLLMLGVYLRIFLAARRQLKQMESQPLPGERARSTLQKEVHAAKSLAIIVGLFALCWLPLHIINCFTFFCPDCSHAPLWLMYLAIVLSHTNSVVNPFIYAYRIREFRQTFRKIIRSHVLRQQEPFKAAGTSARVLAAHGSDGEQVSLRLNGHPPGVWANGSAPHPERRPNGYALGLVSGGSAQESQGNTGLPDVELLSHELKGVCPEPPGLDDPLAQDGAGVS
Sequence of hA1AR (P30542 whole entry): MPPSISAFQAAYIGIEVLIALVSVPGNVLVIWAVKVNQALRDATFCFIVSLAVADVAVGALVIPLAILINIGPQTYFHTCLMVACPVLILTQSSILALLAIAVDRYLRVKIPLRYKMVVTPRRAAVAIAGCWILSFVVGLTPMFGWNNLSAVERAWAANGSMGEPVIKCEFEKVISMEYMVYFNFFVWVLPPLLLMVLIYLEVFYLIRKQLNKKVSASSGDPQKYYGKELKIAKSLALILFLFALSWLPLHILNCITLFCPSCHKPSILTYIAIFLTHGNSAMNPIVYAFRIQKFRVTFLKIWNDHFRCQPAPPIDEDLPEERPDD
Sequence of human A3 receptor (P0DMS8 whole entry): as the sequence (P0DMS8 whole entry) above
Sequence of hA3AR (P0DMS8 whole entry): as above
Experimental for human A3 receptor: Cell culture and membrane preparation: CHO (Chinese hamster ovary) cells expressing the recombinant human A3AR were cultured in DMEM (Dulbecco's modified Eagle's medium) supplemented with 10% fetal bovine serum, 100 units/mL penicillin, 100 μg/mL streptomycin, 2 μmol/mL glutamine and 800 μg/mL geneticin. The CHO cells expressing rat A3ARs were cultured in DMEM and F12 (1:1). Cells were harvested by trypsinization. After homogenization and suspension, cell membranes were centrifuged at 500 g for 10 min, and the pellet was re-suspended in 50 mM Tris.HCl buffer (pH 8.0) containing 10 mM MgCl2, 1 mM EDTA and 0.1 mg/mL CHAPS (3[(3-cholamidopropyl)dimethylammonio]-propanesulfonic acid). […] The protein concentration was measured using the Bradford assay.
The mixtures were incubated at 37° C. for 60 min. Binding reactions were terminated by filtration through Whatman GF/B filters under reduced pressure using a MT-24 cell harvester (Brandell, Gaithersburgh, Md., USA). Filters were washed three times with 9 mL ice-cold buffer. Radioactivity was determined in a Beckman 5500B γ-counter.

A word on the EC50: it is the concentration at which the effect is half-maximal. The term Ki denotes a measure of affinity in units of concentration, obtained from inhibition or displacement. The term IC50 denotes the midpoint of a concentration-inhibition curve. Take `O[C@@H]1[C@H](O)[C@@H]2C[C@@H]2[C@H]1n1cnc2c(NCc3cccc(I)c3)nc(Cl)nc21` [Compound 7b, (1′R,2′R,3′S,4′R,5′S)-4′-[2-Chloro-6-(3-iodobenzylamino)purine]-2′,3′-O-dihydroxybicyclo-[3.1.0]hexane]: on human A3AR [1] (partial agonism, read-out: EC50 at A3AR, cAMP assay), the EC50 is 12 ± 1 nM. The Kb at human A3AR [1] (right shifts of response curves in the inhibition of adenylate cyclase by NECA, read-out: KB value, Schild analysis) stood at 8.9 nM. Moreover, the Ki at human A3 receptor stood at 1.44 ± 0.6 nM. Besides, at human A3AR [2] (read-out: IC50, inhibition of [35S]GTPγS binding stimulated by NECA, stimulation by 1 μM NECA), the IC50 came out at 29.8 nM. Also, on human A3AR [2] (stimulation measured by [35S]GTPγS binding assay), the “% Efficacy A3” value stood at 1.0 ± 3.2%.

In the case of `NCCNC(=O)Cc1ccc(NC(=O)Cc2ccc(Nc3ncnc4c3ncn4[C@@H]3O[C@H](CO)[C@@H](O)[C@H]3O)cc2)cc1` [Compound 237], the Ki on hA3AR was 12.4 ± 4.1 nM; on hA1AR, 10.4 ± 3.8 nM; on hA2AAR, 370 ± 100 nM. Also, in series [3], the “scMET model, number of animals protected from convulsions” value is given as 5 out of 8. In addition, the “MES model, number of animals protected from convulsions” value in the series with MES seizures in mice is listed as 4 out of 8. The “Behavioral toxicity TD50” value with mice is 0.14^d mg/kg. Also, the “6 Hz model ED50” value in series [4] is listed as 0.03^c mg/kg.

These data come from patent US9181253B2 (The United States of America, as represented by the …, priority 2008, dated 2015).
